In US20040266885A1, “Wood preservative compositions” (priority 2001, published 2004):
Several values for one entry are separate records, joined by “and”; a condition that tells them apart may be missing. Equal values may be shown once. Entries after “also recorded” stand apart in the source; their conditions may differ.

What was measured:
[1] = test system: C. formosanus; assay: Laboratory termite test, modified ASTM 3345-74, soil/sand culture, NaOH carrier, blocks not leached; assay type: in vivo; parameters: Termite Attack Rating / Mean Rating (termite attack): scale not given here; details: for Mean Rating (termite attack): mean of 4 specimens; for Mean Rating (termite attack) / Termite Attack Rating: 4 weeks soil/sand culture; for Termite Attack Rating: single specimen; for Termite Attack Rating: key: Score 0: No attack; Score 1: Attempted attack; Score 2: Slight attack; Score 3: Average attack; Score 4: Strong attack
Method: A further experiment was undertaken according to the modified ASTM 3345-74 test detailed in Example 2 with the following 6 changes to the protocol:
1. The solutions tested were as follows:
2. The incubation substrate was a soil/sand mixture (1:1) to which had been added 75 ml of de-ionised water. This substrate was chosen as being more representative of the laboratory conditions under which the wild caught termites (C. formosanus) were maintained.
3. The treated timber samples were positioned on plastic mesh on top of the soil substrate. This method of placement is that used in European Standard EN 117 and is more representative of the feeding conditions of the wild caught termites maintained in the laboratory.
4. 250 termites were used in each incubation vessel.
5. The wood block specimens were not subjected to a leaching process.
6. Evidence of termite tunneling activity and mortality was determined at completion of the incubation period only (4 weeks) and no examinations were undertaken for surface activity.

[2] = test system: Macrotermes natalensis; assay: Field exposure of TBBA treated timber samples to an active termite population (based on EN 117); assay type: in vivo; details: ethanol carrier, 54 days field exposure; for Mean Termite Attack Score (0-4): SD in parenthesis, 3 replicates; for highest termite attack score out of 3 replicates: key: Score 0: No attack; Score 1: Attempted attack; Score 2: Slight attack; Score 3: Average attack; Score 4: Strong attack
Excerpt: The termiticidal and/or termite repellency effect of TBBA was examined by field exposure of TBBA treated timber samples to an active population of termites (Macrotermes natalensis). Much of the test detail (timber specimen species, dimensions, preservative impregnation method, scoring system etc.) was based on the European laboratory standard EN 117. This standard is used to define the toxic values of wood preservative formulations against wood destroying termites of the species Reticulitermes santonensis.
The TBBA active was formulated as a solvent-borne product for the test. (ethanol carrier). The precise preservative solutions used were 0% (ethanol only), 1% TBBA, 3% TBBA, 5% TBBA, 7% TBBA and 10% TBBA (all w/w).
AU wood block specimens were of Scots pine sapwood (Pinus sylvestris) with dimensions of 50×25×15 mm. All the test blocks were vacuum impregnated with TBBA according to the method of EN 117. Distribution of the treated blocks in the test was as follows:
TS Specimens: to determine the efficacy of the TBBA active (at different concentrations) against termite attack. SCS Specimens: to confirm absence of a termiticidal effect by the TBBA carrier (ethanol). UCS Specimens: to establish the virulence of the field population of termites.
The termite field site was established in Ginginglovu (Zululand, South Africa). The soil type of the area was a Hutton Bush Veldt soil (sandy loam soil). The site was situated within 10 m of an active termite mound on a raised flat platform of soil established some 5 cm above ground level. The test specimens were randomly positioned on this platform and carefully covered with a waterproof flat plastic roof. This plastic roof was covered with soil to allow temperature and humidity conditions within the test zone to remain representative of the locale. The test specimens were left in-situ for a period of 54 days then scored for termite attack according the system defined in European standard EN 117 as follows:
Score 1: Attempted attack

CC(C)(c1cc(Br)c(O)c(Br)c1)c1cc(Br)c(O)c(Br)c1 [TBBA, Tetrabromobisphenol A]
termiticidal and termite repellent activity (conclusion) [1]: significant termiticidal and termite repellent activity | termite survival / mortality at the end of the test period ([1]; 4 weeks): the majority of the termites were still active at the end of the test period | Tunneling Activity ([1]; 4 weeks, solution conc. 1%): Yes | Visible Mortality ([1]; 4 weeks, solution conc. 1%): No | Tunneling Activity ([1]; 4 weeks, solution conc. 3%): Yes | Visible Mortality ([1]; 4 weeks, solution conc. 3%): 1-33% | Tunneling Activity ([1]; 4 weeks, solution conc. 5%): Yes | Visible Mortality ([1]; 4 weeks, solution conc. 5%): 1-33% | Tunneling Activity ([1]; 4 weeks, solution conc. 7%): Yes | Visible Mortality ([1]; 4 weeks, solution conc. 7%): 1-33% | Tunneling Activity ([1]; 4 weeks, solution conc. 10%): Yes | Visible Mortality ([1]; 4 weeks, solution conc. 10%): 1-33% | prevention of termite attack / restriction of termite damage ([1]; all concentrations used (1-10%), 4 weeks): significant attack was prevented by all concentrations; also recorded: a very significant effect in restricting termite damage | toxic value, upper (lowest concentration which protects the wood) ([1]; mean loading, solution concentration 3% (TBBF) or 1%, not leached): 7.27 kg/m^3 | Mean Rating (termite attack) ([1]; solution conc. 1%): 1.00 | Termite Attack Rating ([1]; solution conc. 1%): 1 | Mean Rating (termite attack) ([1]; solution conc. 3%): 1.00 | Termite Attack Rating ([1]; solution conc. 3%): 1 | Mean Rating (termite attack) ([1]; solution conc. 5%): 1.00 | Termite Attack Rating ([1]; solution conc. 5%): 1 | Mean Rating (termite attack) ([1]; solution conc. 7%): 0.75 | Termite Attack Rating ([1]; solution conc. 7%): 1 and 0 | Mean Rating (termite attack) ([1]; solution conc. 10%): 1.00 | Termite Attack Rating ([1]; solution conc. 10%): 1 | repellent effect (soil covering of test specimens) ([1]; specimens treated with 5, 7 and 10% solutions only partially soil covered): acting as a repellent throughout the trial period | Mean Termite Attack Score (0-4) ([2]; 1% TBBA (w/w)): 0.00 (0.00) | highest termite attack score out of 3 replicates ([2]; 1% TBBA): 0 | Mean Termite Attack Score (0-4) ([2]; 3% TBBA (w/w)): 0.00 (0.00) | highest termite attack score out of 3 replicates ([2]; 3% TBBA): 0 | Mean Termite Attack Score (0-4) ([2]; 5% TBBA (w/w)): 0.00 (0.00) | highest termite attack score out of 3 replicates ([2]; 5% TBBA): 0 | Mean Termite Attack Score (0-4) ([2]; 7% TBBA (w/w)): 0.33 (0.58) | highest termite attack score out of 3 replicates ([2]; 7% TBBA): 1 | Mean Termite Attack Score (0-4) ([2]; 10% TBBA (w/w)): 0.00 (0.00) | highest termite attack score out of 3 replicates ([2]; 10% TBBA): 0
